Literature values, collected in PMC9851200, “Multiparameter phenotypic screening for endogenous TFEB and TFE3 translocation identifies novel chemical series modulating lysosome function” (Autophagy, 2022).

How the values were obtained:
Parameters in all cases: method as in original PKIS2 published data
[1] = target: kinases (KINOMEscan panel) (Homo sapiens, UniProt O60674); conditions: JAK2(JH1domain-catalytic); Published KINOMEscan; ref original PKIS2 published data; cited from earlier work
[2] = target: T1, kinases (KINOMEscan panel) (Homo sapiens, UniProt O76039); conditions: kinase CDKL5; Published KINOMEscan; ref original PKIS2 published data; cited from earlier work
T1 sequence (O76039 1-960): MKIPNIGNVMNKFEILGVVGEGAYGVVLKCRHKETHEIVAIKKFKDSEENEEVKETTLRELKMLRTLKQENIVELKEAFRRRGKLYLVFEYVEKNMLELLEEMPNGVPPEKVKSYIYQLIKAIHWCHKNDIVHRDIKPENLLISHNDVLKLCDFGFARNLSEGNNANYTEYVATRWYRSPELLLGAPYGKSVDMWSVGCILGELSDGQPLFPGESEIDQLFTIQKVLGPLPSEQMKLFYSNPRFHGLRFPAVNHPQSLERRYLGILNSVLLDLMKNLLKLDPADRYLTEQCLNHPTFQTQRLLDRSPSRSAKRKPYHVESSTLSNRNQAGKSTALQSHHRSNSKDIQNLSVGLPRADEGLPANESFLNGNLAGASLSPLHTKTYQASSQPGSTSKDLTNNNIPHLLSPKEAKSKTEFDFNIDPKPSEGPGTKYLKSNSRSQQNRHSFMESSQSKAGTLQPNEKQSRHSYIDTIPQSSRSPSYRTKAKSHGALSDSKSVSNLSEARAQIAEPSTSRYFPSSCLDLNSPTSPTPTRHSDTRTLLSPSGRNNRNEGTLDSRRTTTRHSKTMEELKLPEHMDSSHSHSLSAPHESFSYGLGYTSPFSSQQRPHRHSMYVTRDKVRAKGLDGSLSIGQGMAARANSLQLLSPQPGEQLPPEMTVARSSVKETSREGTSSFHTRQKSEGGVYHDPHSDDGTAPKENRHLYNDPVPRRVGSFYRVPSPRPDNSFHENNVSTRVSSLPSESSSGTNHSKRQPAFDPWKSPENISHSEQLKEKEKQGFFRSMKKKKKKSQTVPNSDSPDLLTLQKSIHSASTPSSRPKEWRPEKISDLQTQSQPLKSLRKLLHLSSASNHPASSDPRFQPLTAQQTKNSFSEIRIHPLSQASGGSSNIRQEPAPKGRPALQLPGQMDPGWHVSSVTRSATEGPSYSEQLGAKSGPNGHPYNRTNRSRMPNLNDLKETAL

[3] = target: kinases (KINOMEscan panel) (Homo sapiens, UniProt Q00535); conditions: Published KINOMEscan; ref original PKIS2 published data; cited from earlier work
[4] = target: kinases (KINOMEscan panel) (Homo sapiens, UniProt Q08345); conditions: DDR1; Published KINOMEscan; ref original PKIS2 published data; cited from earlier work
[5] = target: kinases (KINOMEscan panel) (Homo sapiens, UniProt Q13523); conditions: PRPF4B; Published KINOMEscan; ref original PKIS2 published data; cited from earlier work
[6] = target: kinases (KINOMEscan panel) (Homo sapiens, UniProt Q8IVW4); conditions: kinase CDKL3; Published KINOMEscan; ref original PKIS2 published data; cited from earlier work
[7] = target: T2, kinases (KINOMEscan panel) (Homo sapiens, UniProt Q8WXR4); conditions: MYO3B; Published KINOMEscan; ref original PKIS2 published data; cited from earlier work
T2 sequence (Q8WXR4 1-1341): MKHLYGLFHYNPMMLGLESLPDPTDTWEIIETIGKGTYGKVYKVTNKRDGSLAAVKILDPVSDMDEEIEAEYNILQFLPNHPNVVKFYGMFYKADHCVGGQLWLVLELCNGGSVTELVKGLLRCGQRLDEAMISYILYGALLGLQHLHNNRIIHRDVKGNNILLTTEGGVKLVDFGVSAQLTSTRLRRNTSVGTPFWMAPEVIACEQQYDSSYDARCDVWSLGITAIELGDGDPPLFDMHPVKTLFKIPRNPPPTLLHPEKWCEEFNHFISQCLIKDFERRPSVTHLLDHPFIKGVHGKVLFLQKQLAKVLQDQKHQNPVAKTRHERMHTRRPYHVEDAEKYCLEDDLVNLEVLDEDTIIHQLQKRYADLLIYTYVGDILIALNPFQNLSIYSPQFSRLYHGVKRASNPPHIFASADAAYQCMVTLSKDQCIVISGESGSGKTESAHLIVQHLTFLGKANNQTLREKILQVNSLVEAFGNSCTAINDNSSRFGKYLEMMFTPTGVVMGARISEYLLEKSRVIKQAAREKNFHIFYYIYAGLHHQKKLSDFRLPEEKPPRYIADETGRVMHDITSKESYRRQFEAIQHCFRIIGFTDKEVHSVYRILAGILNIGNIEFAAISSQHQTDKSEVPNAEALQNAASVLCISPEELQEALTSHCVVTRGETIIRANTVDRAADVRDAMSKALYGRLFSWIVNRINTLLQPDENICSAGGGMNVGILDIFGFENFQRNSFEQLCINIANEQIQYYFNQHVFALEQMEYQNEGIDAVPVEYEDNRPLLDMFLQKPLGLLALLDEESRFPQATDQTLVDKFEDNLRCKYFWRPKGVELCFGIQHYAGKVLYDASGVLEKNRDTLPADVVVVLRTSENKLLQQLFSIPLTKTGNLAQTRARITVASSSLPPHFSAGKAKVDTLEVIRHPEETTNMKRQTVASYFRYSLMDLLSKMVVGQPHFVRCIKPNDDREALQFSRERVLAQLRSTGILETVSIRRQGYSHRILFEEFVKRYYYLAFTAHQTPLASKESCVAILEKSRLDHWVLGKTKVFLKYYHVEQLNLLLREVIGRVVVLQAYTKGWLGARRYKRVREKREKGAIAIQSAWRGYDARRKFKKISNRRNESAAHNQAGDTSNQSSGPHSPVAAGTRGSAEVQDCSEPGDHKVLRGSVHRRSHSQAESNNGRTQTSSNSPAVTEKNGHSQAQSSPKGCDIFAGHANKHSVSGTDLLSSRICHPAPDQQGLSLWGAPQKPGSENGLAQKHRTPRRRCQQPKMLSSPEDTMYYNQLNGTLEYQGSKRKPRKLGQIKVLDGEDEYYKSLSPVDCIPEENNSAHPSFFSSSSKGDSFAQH

[8] = target: kinases (KINOMEscan panel) (Homo sapiens, UniProt Q9BUB5); conditions: Published KINOMEscan; ref original PKIS2 published data; cited from earlier work
kinases (KINOMEscan panel) (Homo sapiens, UniProt Q9BUB5), sequence (Q9BUB5 whole entry): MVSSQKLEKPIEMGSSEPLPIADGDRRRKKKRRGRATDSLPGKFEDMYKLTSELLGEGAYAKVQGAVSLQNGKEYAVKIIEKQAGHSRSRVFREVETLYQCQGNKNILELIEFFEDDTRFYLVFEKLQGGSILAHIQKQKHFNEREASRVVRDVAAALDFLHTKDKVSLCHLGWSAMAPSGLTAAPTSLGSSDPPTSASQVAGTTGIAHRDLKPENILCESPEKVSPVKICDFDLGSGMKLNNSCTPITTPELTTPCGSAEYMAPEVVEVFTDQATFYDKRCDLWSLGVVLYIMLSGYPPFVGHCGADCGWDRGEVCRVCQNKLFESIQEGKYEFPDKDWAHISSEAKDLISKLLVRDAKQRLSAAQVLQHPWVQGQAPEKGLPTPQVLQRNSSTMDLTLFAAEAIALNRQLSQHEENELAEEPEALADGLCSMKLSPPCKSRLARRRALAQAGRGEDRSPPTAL

kinases (KINOMEscan panel) (Homo sapiens, UniProt Q8IVW4), sequence (Q8IVW4 whole entry): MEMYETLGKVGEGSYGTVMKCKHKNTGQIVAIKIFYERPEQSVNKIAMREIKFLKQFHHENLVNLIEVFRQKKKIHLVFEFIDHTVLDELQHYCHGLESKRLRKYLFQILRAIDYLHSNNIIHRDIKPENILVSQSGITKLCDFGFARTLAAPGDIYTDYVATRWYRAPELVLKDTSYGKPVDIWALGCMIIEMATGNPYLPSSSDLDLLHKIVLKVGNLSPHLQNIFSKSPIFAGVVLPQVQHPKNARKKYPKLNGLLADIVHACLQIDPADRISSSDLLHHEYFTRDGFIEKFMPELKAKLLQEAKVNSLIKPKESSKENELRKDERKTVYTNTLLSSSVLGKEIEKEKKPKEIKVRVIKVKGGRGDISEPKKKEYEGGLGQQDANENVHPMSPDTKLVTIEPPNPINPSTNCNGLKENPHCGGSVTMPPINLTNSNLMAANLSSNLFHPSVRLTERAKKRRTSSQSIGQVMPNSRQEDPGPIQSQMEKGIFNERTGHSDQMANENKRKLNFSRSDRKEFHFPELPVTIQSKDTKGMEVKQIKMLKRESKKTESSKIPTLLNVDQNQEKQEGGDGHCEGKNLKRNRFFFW
kinases (KINOMEscan panel) (Homo sapiens, UniProt O60674), sequence (O60674 whole entry): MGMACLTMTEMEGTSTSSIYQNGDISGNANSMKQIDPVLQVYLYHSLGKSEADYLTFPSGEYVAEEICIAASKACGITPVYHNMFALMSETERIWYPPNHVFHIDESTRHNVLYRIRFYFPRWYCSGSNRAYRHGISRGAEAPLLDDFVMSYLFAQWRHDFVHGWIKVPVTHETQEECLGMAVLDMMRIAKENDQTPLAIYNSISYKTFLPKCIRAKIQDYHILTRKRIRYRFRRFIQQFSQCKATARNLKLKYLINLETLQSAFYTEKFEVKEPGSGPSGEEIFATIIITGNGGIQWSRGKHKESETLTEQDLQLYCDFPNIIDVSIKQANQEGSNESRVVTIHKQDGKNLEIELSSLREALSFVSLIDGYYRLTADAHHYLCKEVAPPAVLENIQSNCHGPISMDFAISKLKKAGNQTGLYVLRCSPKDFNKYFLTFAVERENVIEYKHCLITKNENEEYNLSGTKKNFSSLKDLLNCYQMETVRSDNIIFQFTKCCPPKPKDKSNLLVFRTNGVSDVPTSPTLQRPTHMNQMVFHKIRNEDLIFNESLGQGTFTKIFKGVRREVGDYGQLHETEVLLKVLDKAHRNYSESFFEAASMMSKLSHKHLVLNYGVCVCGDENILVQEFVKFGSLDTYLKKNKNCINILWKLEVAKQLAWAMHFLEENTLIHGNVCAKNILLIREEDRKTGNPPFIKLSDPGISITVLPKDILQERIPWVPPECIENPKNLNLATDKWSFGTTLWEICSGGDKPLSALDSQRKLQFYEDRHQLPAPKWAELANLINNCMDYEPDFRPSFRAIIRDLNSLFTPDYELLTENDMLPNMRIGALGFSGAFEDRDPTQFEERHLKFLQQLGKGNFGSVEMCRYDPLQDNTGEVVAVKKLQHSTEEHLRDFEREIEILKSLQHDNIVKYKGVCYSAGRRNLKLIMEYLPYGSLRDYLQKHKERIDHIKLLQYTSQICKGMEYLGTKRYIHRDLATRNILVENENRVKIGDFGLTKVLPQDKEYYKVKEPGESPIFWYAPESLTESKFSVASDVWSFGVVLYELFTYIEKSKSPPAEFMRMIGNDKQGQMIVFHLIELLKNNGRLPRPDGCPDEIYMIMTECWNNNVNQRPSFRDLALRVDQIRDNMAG
kinases (KINOMEscan panel) (Homo sapiens, UniProt Q13523), sequence (Q13523 whole entry): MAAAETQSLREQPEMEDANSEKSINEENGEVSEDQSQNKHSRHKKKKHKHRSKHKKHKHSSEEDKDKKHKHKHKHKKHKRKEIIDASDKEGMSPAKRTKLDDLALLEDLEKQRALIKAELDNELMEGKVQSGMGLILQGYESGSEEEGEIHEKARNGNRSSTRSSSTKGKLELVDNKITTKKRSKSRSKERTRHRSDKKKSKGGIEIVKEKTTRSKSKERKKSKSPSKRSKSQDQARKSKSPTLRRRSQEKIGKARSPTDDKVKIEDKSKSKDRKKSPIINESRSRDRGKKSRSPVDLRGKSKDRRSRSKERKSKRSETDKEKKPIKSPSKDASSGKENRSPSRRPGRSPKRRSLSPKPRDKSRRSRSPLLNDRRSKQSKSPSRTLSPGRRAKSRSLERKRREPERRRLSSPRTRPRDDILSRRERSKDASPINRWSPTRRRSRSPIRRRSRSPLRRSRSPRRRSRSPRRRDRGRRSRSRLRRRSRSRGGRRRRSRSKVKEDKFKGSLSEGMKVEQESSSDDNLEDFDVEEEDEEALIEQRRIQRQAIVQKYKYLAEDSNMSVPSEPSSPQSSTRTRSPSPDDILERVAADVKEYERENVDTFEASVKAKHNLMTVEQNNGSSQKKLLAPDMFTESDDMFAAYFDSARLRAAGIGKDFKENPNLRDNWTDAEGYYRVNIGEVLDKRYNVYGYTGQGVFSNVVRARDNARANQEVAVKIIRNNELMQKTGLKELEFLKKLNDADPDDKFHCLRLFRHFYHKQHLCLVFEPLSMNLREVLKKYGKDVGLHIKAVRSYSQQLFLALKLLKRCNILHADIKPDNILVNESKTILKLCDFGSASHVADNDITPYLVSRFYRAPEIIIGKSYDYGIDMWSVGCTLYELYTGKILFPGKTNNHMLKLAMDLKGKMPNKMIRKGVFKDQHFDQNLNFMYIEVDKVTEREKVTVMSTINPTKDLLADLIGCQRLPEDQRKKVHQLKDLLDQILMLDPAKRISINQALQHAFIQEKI
kinases (KINOMEscan panel) (Homo sapiens, UniProt Q00535), sequence (Q00535 whole entry): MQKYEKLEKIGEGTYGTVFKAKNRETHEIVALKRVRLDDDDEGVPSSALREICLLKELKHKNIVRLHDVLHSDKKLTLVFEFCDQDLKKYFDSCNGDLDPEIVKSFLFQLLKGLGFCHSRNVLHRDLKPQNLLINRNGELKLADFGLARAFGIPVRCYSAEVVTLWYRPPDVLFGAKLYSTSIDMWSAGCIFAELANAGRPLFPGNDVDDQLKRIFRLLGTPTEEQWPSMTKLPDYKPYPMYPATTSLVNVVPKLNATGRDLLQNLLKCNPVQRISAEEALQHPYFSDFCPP
kinases (KINOMEscan panel) (Homo sapiens, UniProt Q08345), sequence (Q08345 19-913): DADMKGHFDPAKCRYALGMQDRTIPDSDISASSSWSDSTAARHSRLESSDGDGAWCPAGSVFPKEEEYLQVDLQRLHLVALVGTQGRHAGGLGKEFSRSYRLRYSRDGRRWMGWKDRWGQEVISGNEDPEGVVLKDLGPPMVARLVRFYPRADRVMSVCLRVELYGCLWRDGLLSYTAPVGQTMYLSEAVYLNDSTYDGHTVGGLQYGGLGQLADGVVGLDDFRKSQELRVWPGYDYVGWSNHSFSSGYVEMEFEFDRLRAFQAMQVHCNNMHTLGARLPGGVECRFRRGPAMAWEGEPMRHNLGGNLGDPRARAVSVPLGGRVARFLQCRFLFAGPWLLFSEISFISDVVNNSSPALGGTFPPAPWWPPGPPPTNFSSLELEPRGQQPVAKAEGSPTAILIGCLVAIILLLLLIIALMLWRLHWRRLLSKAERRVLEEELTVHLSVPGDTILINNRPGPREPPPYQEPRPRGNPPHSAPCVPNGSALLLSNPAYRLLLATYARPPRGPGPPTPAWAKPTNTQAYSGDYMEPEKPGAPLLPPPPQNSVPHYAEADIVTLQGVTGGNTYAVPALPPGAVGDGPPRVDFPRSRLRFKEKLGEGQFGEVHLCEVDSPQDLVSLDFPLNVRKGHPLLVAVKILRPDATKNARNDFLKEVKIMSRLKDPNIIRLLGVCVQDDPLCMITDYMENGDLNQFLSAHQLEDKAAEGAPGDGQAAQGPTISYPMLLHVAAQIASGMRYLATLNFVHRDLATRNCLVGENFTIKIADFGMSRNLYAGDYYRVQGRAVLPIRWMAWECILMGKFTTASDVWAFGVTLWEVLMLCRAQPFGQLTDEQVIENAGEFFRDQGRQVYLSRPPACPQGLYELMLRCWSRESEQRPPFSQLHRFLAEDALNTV

## Cc1cccc(-c2nc(Nc3ccncc3)c3ccccc3n2)n1 [NK215]
[1]
  KINOMEscan JAK2(JH1domain-catalytic): 0
[2]
  KINOMEscan CDKL5: 0
[3]
  KINOMEscan CDK5: 0
[4]
  KINOMEscan DDR1: 30
[5]
  KINOMEscan PRPF4B: 17
[6]
  KINOMEscan CDKL3: 0
[7]
  KINOMEscan MYO3B: 17
[8]
  KINOMEscan MKNK1: 0
